Data set [1] deals with T1, PXR LBD (Homo sapiens, UniProt O75469).
T1 construct: validated using a one-hybrid PXR LBD reporter assay; expressed in transfected cells; host or cells: Caco-2
T1 sequence (O75469 146-433 limits assumed): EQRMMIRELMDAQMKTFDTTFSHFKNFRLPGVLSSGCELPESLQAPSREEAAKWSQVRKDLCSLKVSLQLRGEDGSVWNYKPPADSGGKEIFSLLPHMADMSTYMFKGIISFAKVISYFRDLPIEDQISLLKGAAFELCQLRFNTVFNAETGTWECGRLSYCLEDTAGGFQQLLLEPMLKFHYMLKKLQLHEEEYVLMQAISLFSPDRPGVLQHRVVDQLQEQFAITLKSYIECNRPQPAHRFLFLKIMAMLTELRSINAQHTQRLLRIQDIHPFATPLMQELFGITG
Kind of data set: One-hybrid PXR LBD reporter gene assay in Caco-2 cells. The data set is classed as cell-based. The note with it: 24 h exposure, FIG. 3. The protocol: FIG. 3. One-hybrid PXR reporter gene assay. Performed in Caco-2 cells as a 24 h exposure to FKK5 at two different concentrations.

Data set [2] deals with T2, AhR (Homo sapiens, UniProt P35869).
T2 sequence (P35869 11-848): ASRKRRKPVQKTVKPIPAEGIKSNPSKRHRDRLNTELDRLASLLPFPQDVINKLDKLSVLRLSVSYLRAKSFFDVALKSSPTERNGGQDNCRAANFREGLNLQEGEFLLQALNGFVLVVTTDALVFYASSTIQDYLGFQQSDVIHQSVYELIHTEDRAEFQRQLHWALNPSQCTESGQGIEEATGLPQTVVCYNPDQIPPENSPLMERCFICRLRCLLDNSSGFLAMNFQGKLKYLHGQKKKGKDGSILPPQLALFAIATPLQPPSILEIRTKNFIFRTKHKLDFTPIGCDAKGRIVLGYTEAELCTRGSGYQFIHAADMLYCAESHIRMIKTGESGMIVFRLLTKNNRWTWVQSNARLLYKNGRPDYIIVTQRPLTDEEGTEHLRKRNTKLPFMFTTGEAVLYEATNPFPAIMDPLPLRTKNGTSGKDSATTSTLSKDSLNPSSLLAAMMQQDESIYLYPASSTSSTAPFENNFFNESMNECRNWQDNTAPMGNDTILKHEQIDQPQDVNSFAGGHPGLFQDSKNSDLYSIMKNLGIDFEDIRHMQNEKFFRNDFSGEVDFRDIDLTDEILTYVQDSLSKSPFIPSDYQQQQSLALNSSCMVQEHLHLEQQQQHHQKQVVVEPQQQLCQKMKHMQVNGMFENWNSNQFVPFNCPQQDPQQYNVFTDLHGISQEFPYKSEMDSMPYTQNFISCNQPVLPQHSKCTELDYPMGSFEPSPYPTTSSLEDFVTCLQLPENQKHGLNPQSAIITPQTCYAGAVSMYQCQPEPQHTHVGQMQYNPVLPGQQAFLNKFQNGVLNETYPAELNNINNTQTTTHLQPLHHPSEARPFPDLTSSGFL
Put plainly: HTS nuclear receptor activation screen using LS180 cells (AhR). It counts as cell-based. The note with it: data not shown.

Experimental findings from patent US11724998B2, “PXR agonists and uses thereof for gut barrier dysfunction treatment and prevention” (Albert Einstein College of Medicine, priority 2017, dated 2023) are described below.

For the compound `O=C(c1ccncc1)c1cc2ccccc2n1S(=O)(=O)c1ccccc1` [FKK5], the “activation of PXR” value in data set [1] is approximately 5 fold. In data set [2], the AhR activation result is “not AhR”.
